{"source": "patent US20120322843A1", "about": "“GENOTYPE SPECIFIC METHODS FOR TREATING HUMAN SUBJECTS USING 4-METHYLPYRAZOLE” (RAPTOR THERAPEUTICS INC., priority 2009, published 2012)", "tested_on": "human subjects with reduced or absent ALDH2 activity", "assay": "Blinded, intra-subject controlled, single dose study of oral 4-MP given before ethanol; serum acetaldehyde measured by HPLC/MS/MS and compared by ALDH2/ADH2 genotype", "assay_type": "in vivo", "method": "A blinded, intra-subject controlled, single dose, dose escalation study of 4-MP for mitigation of acetaldehyde related toxicity in subjects with symptoms of inborn altered ethanol metabolism with concomitant ethanol exposure was undertaken.\nTwenty-four subjects (n=24) were randomly selected and orally administered 1 mg/kg, 3 mg/kg, or 5 mg/kg of 4-MP, followed 30 minutes later by an oral dose of 20% ethanol ([…]).\nUsing the same protocol, wherein 4-MP was replaced with placebo, each of the twenty-four randomly selected subjects served as its own control.\nThe twenty-four randomly selected subjects were then subjected to blood sampling, and the sampled blood analyzed for acetaldehyde levels at select time points following ethanol consumption.\nFor acetaldehyde analysis, blood samples were prepared by dilution with an internal standard (acetaldehyde-d4), with derivatization of acetaldehyde with dinitrophenyl hydrazine in hydrochloric acid, liquid-liquid portioning and solvent exchange. The derivatization forms an acetaldehyde-dinitrophenyl hydrazine (DNPH) derivative which dramatically increases the boiling point of the molecule and thus its relative stability compared to the acetaldehyde itself (Nagy et al., Rapid Communications in Mass Spectrometry 2004, 18, 2473-2478). The derivatized analytes were separated using a Jones Chromatography (Grace-Vydac). 50 mm×2.1 mm, 3 μm column held in an oven set at 28° C. Two mobile phases were used in a gradient consisting of 30:70 acetonitrile:water versus 90:10 acetonitrile:water with 0.1% formic acid. The derivatized analyte was detected on a High Performance Liquid Chromatograph equipped with a Mass Spectrometer (HPLC/MS/MS). Quantitation was performed using a linear regression curve fit of impurities standards with 1/× weighting, prepared from dilutions of acetaldehyde in water. Samples and standards were injected at 2 μL.\nAll […] subjects were then genotyped for ALDH2 and ADH2 at the Alcohol Research Center at Indiana University using (i) genomic DNA isolation and (ii) TaqMan assay for allelic discrimination. • i. Genomic DNA isolation: DNA was first isolated using the “Hot:SHOT” method for isolating PCR quality genomic DNA (Truett et al., Biotechniques 2000, 29(1), 52, 54). Briefly, blood blotted on filter paper (3 mm circle) was placed in the well of a 96-well plate and mixed with 75 μL 25 mM NaOH/0.3 mM EDTA solution and heated to 95° C. for 40 minutes, followed by neutralization with 75 μL 40 mM Tris-HCl ([…]) solution. 1-5 microliters were used for each PCR. • ii. TaqMan Assay for Allelic Discrimination: The allelic discrimination assay used a multiplexed (more than one primer/probe pair per reaction), end-point (data is collected at the end of the PCR process) assay. Each assay mix contained two different TaqMan probes (Applied BioSystems, Foster City, Calif.), labeled with VIC or FAM fluorescent reporter dye, which bound preferentially to one of the alleles. The genotype of each sample was determined by the fluorescence levels of the reporter dyes and was clustered on a graph with other samples of the same genotype. Each reaction contained 5 μL of 2×TaqMan Universal PCR Mastermix, No AmpErase UNG, 3.75 μL of water, 0.25 μL, of 40× Assay Mix, and 1 μL of DNA sample. Eight or eleven controls were included on each 96-well plate: two no template controls, two or three heterozygous samples, and two or three of each of the homozygous samples. Thermocycling was carried out in ND Research PTC-200 thermocyclers. The PCR products were then analyzed in an ABI PRISM® 7300 Sequence Detection System (SOS) instrument. SDS Software 1.3.1 converted the raw data to pure dye components and ploted the results of the allelic discrimination on a scatter plot of Allele X versus Allele Y (e.g. ADH2*1 versus ADH2*2); each genotype appeared on the graph as a cluster of points. […]", "key": {"[1]": {"conditions": "Groups A and D (reduced ALDH2 activity, ADH2*1/ADH2*1 or ADH2*1/ADH2*2), n=6, 1 mg/kg 4-MP oral, then ethanol"}, "[2]": {"conditions": "Groups A, B, D, F and G (reduced or absent ALDH2 activity), n=23, 1, 3 or 5 mg/kg 4-MP"}, "[3]": {"conditions": "Groups F and G (reduced or absent ALDH2 activity, ADH2*2/ADH2*2), n=6, 1 mg/kg 4-MP oral, then ethanol"}}, "note": "“And” between values parts separate entries of the source, which are not always exact repeats. Identical values can stand only once."}
{"smiles": "Cc1cn[nH]c1", "note": "[4-MP, 4-methylpyrazole]", "values": [{"measurement": "Acetaldehyde AUC0-8H mean", "setting": "[1]", "result": "162 ± 18.7 µg·h/mL and 162 µg·h/mL"}, {"measurement": "Cmax mean (serum acetaldehyde)", "setting": "[1]", "result": 41.3, "unit": "µg/mL"}, {"measurement": "Peak mean acetaldehyde concentration in the blood (FIG. 2)", "setting": "Groups A and D, 1 mg/kg 4-MP", "result": "can be reduced"}, {"measurement": "Reduction in Cmax mean relative to placebo", "setting": "Groups A and D, 1 mg/kg 4-MP", "result": "approximately 36%"}, {"measurement": "Acetaldehyde AUC0-8H mean", "setting": "[2]", "result": 182, "unit": "µg·h/mL"}, {"measurement": "Cmax mean (serum acetaldehyde)", "setting": "[2]", "result": 64.2, "unit": "µg/mL"}, {"measurement": "Peak mean acetaldehyde concentration in the blood (FIG. 3)", "setting": "Groups F and G (ADH2*2/ADH2*2), 1 mg/kg 4-MP", "result": "not reduced"}, {"measurement": "Acetaldehyde AUC0-8H mean", "setting": "[3]", "result": 221, "unit": "µg·h/mL"}, {"measurement": "Cmax mean (serum acetaldehyde)", "setting": "[3]", "result": 89.2, "unit": "µg/mL"}, {"measurement": "Peak mean acetaldehyde concentration in the blood (FIG. 4)", "setting": "all subjects with reduced or absent ALDH2 activity, 1, 3 or 5 mg/kg 4-MP", "result": "not reduced"}]}
